According to ChEMBL document CHEMBL4251606, “Design and characterization of α-lipoic acyl shikonin ester twin drugs as tubulin and PDK1 dual inhibitors” (Eur J Med Chem, 2018):
Calls of active or inactive are those of the source. The calls are words filed in the database; no cut-off is given here.

Assays:
Mus musculus = test: Toxicity in nude mouse xenografted with human HeLa cells assessed as loss in body weight at 0.5 to 2 mg/kg, ip administered once in every 2 days for 15 days; type: organism-based; conditions: in vivo
HeLa [1] = test: Induction of apoptosis in human HeLa cells assessed as early apoptotic cells at 6 uM after 24 hrs by Annexin V-APC/propidium iodide staining-based FACScan flow cytometric analysis (reference value: 2.45%); type: functional
HeLa [2] = test: Induction of apoptosis in human HeLa cells assessed as late apoptotic cells by measuring FL3-H+ cells at 6 uM after 36 hrs by propidium iodide staining-based FACScan flow cytometric analysis (reference value: 2.13%); type: functional
HeLa [3] = test: Induction of apoptosis in human HeLa cells assessed as late apoptotic cells by measuring FL3-H+ cells at 5.6 uM after 24 hrs by propidium iodide staining-based FACScan flow cytometric analysis (reference value: 2.14%); type: functional
HeLa [4] = test: Antiproliferative activity against human HeLa cells after 24 hrs by MTT assay; type: functional, cell-based
HeLa [5] = test: Inhibition of microtubule polymerization in human HeLa cells at 4 uM after 24 hrs by rhodamine/DAPI staining-based confocal microscopic analysis; type: cell-based
HeLa [6] = test: Induction of apoptosis in human HeLa cells assessed as late apoptotic cells at 4 uM after 24 hrs by Annexin V-APC/propidium iodide staining-based FACScan flow cytometric analysis (reference value: 7.22%); type: functional
HeLa [7] = test: Induction of apoptosis in human HeLa cells assessed as viable cells at 4 uM after 24 hrs by Annexin V-APC/propidium iodide staining-based FACScan flow cytometric analysis (reference value: 85.1%); type: functional; conditions: read-out: Activity
HeLa [8] = test: Induction of apoptosis in human HeLa cells assessed as late apoptotic cells by measuring FL3-H+ cells at 6 uM after 12 hrs by propidium iodide staining-based FACScan flow cytometric analysis (reference value: 2.13%); type: functional
HeLa [9] = test: Induction of apoptosis in human HeLa cells assessed as necrotic cells at 2 uM after 24 hrs by Annexin V-APC/propidium iodide staining-based FACScan flow cytometric analysis (reference value: 1.18%); type: functional
HeLa [10] = test: Induction of apoptosis in human HeLa cells assessed as late apoptotic cells at 6 uM after 12 hrs by Annexin V-APC/propidium iodide staining-based FACScan flow cytometric analysis (reference value: 3.84%); type: functional
[11] = biological target: [Pyruvate dehydrogenase (acetyl-transferring)] kinase isozyme 1, mitochondrial (Homo sapiens) (UniProt Q15118); test: Inhibition of PDK1 in human HeLa cells assessed as decrease in PDH-E1 alpha p-ser232 expression up to 8 uM by Western blot analysis; type: cell-based
HeLa [12] = test: Induction of apoptosis in human HeLa cells assessed as necrotic cells at 6 uM after 36 hrs by Annexin V-APC/propidium iodide staining-based FACScan flow cytometric analysis (reference value: 0.725%); type: functional
L02 = test: Antiproliferative activity against human LO2 cells after 24 hrs by MTT assay; type: cell-based; conditions: L02, 24 h
HeLa [13] = test: Induction of apoptosis in human HeLa cells assessed as increase in caspase-3 cleavage up to 8 uM after 24 hrs by Western blot analysis; type: functional, cell-based
HeLa [14] = test: Induction of apoptosis in human HeLa cells assessed as late apoptotic cells by measuring FL3-H+ cells at 2 uM after 12 hrs by propidium iodide staining-based flow cytometric analysis (reference value: 3.66%); type: functional
HeLa [15] = test: Induction of apoptosis in human HeLa cells assessed as late apoptotic cells by measuring FL3-H+ cells at 1.4 uM after 24 hrs by propidium iodide staining-based FACScan flow cytometric analysis (reference value: 2.14%); type: functional
HeLa [16] = test: Induction of apoptosis in human HeLa cells assessed as late apoptotic cells at 1 uM after 24 hrs by Annexin V-APC/propidium iodide staining-based FACScan flow cytometric analysis (reference value: 7.22%); type: functional
HeLa [17] = test: Induction of apoptosis in human HeLa cells assessed as late apoptotic cells by measuring FL3-H+ cells at 4 uM after 12 hrs by propidium iodide staining-based flow cytometric analysis (reference value: 3.66%); type: functional
Homo sapiens = species on record: Homo sapiens; test: Inhibition of microtubule polymerization (unknown origin) at 4 uM after 24 hrs by immunoblot
HeLa [18] = test: Cell cycle arrest in human HeLa cells assessed as accumulation of cells at S phase at 8 uM after 24 hrs by propidium iodide staining-based FACScan flow cytometric analysis (reference value: 20.16%); type: functional
[19] = biological target: [Pyruvate dehydrogenase (acetyl-transferring)] kinase isozyme 1, mitochondrial (Homo sapiens) (UniProt Q15118); test: Inhibition of PDK1 in human HeLa cells assessed as decrease in PDH-E1 alpha p-ser293 expression up to 8 uM by Western blot analysis; type: cell-based
HeLa [20] = test: Antitumor activity against human HeLa cells xenografted in nude mouse assessed as reduction in tumor size at 1 mg/kg, ip administered once in every 2 days for 15 days relative to control; type: functional, organism-based
HeLa [21] = test: Induction of apoptosis in human HeLa cells assessed as early apoptotic cells at 6 uM after 12 hrs by Annexin V-APC/propidium iodide staining-based FACScan flow cytometric analysis (reference value: 2.45%); type: functional
HeLa [22] = test: Cell cycle arrest in human HeLa cells assessed as accumulation of cells at S phase at 2 uM after 24 hrs by propidium iodide staining-based FACScan flow cytometric analysis (reference value: 20.16%); type: functional
HeLa [23] = test: Induction of apoptosis in human HeLa cells assessed as viable cells at 6 uM after 24 hrs by Annexin V-APC/propidium iodide staining-based FACScan flow cytometric analysis (reference value: 93%); type: functional; conditions: read-out: Activity
HeLa [24] = test: Cell cycle arrest in human HeLa cells assessed as accumulation of cells at G2/M phase at 2 uM after 24 hrs by propidium iodide staining-based FACScan flow cytometric analysis (reference value: 16.82%); type: functional
[25] = biological target: [Pyruvate dehydrogenase (acetyl-transferring)] kinase isozyme 1, mitochondrial (Homo sapiens) (UniProt Q15118); test: Inhibition of PDK1 in human HeLa cells assessed as increase in PDH activity at 1 to 1.5 uM by microplate assay; type: cell-based
HeLa [26] = test: Induction of apoptosis in human HeLa cells assessed as late apoptotic cells at 6 uM after 36 hrs by Annexin V-APC/propidium iodide staining-based FACScan flow cytometric analysis (reference value: 3.84%); type: functional
HeLa [27] = test: Induction of apoptosis in human HeLa cells assessed as necrotic cells at 1 uM after 24 hrs by Annexin V-APC/propidium iodide staining-based FACScan flow cytometric analysis (reference value: 1.18%); type: functional
HeLa [28] = test: Induction of apoptosis in human HeLa cells assessed as early apoptotic cells at 2 uM after 24 hrs by Annexin V-APC/propidium iodide staining-based FACScan flow cytometric analysis (reference value: 6.46%); type: functional
HeLa [29] = test: Cell cycle arrest in human HeLa cells assessed as accumulation of cells at G2/M phase at 8 uM after 24 hrs by propidium iodide staining-based FACScan flow cytometric analysis (reference value: 16.82%); type: functional
HeLa [30] = test: Cell cycle arrest in human HeLa cells assessed as accumulation of cells at S phase at 4 uM after 24 hrs by propidium iodide staining-based FACScan flow cytometric analysis (reference value: 20.16%); type: functional
HeLa [31] = test: Cell cycle arrest in human HeLa cells assessed as accumulation of cells at G1 phase at 2 uM after 24 hrs by propidium iodide staining-based FACScan flow cytometric analysis (reference value: 62.92%); type: functional

CC(C)=CC[C@@H](OC(=O)CCCC[C@@H]1CCSC(c2ccccc2)S1)C1=CC(=O)c2c(O)ccc(O)c2C1=O (some centres undefined)
Activity (Mus musculus): Non-Toxic | Activity (HeLa [1]): 26.1% | Activity (HeLa [2]): 55.2% | Activity (HeLa [3]): 85.2% | IC50 (HeLa [4]): 3.14 µM | inhibition (HeLa [5]): Active | Activity (HeLa [6]): 58.4% | viability at 4 µM (HeLa [7]): 18.1% | Activity (HeLa [8]): 10% | Activity (HeLa [9]): 11.9% | Activity (HeLa [10]): 29.9% | inhibition [11]: Active | Activity (HeLa [12]): 5.03% | IC50 (L02): 116 µM | Activity (HeLa [13]): Active | Activity (HeLa [14]): 3.9% | Activity (HeLa [15]): 30.1% | Activity (HeLa [16]): 42.7% | Activity (HeLa [17]): 4.74% | inhibition (Homo sapiens): Active | Activity (HeLa [18]): 32.14% | inhibition [19]: inactive | Activity (HeLa [20]): Active | Activity (HeLa [21]): 19% | Activity (HeLa [22]): 16.37% | viability at 6 µM (HeLa [23]): 29.1% | Activity (HeLa [24]): 32.67% | inhibition [25]: Active | Activity (HeLa [26]): 22.9% | Activity (HeLa [27]): 4.46% | Activity (HeLa [28]): 15.5% | Activity (HeLa [29]): 52.44% | Activity (HeLa [30]): 29.06% | Activity (HeLa [31]): 50.96%
